Columns and labels:
Type in all cases: ADME
CYP2E1 [1] = molecular target: T1, CYP2E1 (Homo sapiens, UniProt P05181); assay: Inhibition of human CYP2E1 assessed as chlorzoxazone 6-hydroxylase activity at 2.5 mM after 72 hrs preincubation by HPLC analysis (RVb = 100%); parameters: scale not given: the % may be the effect or the level left; details: probe chlorzoxazone (6-hydroxylation), read-out: Activity
CYP2E1 [2] = molecular target: T1, CYP2E1; assay: Inhibition of human CYP2E1 assessed as chlorzoxazone 6-hydroxylase activity at 20 mM after 72 hrs preincubation by HPLC analysis in presence of 1 mM NADPH and 5 mM glutathione (RVb = 100%); parameters: scale not given: the % may be the effect or the level left; details: probe chlorzoxazone (6-hydroxylation), read-out: Activity
CYP2E1 [3] = molecular target: T1, CYP2E1; assay: Inhibition of human CYP2E1 assessed as chlorzoxazone 6-hydroxylase activity at 40 mM after 72 hrs preincubation by HPLC analysis (RVb = 100%); parameters: scale not given: the % may be the effect or the level left; details: probe chlorzoxazone (6-hydroxylation), read-out: Activity
Cytochrome P450 2E1 [4] = molecular target: T2, Cytochrome P450 2E1 (Homo sapiens, UniProt P05181); assay: Inhibition of human CYP2E1-mediated chlorzoxazone hydroxylase activity at 2.5 to 40 mM by LC-MS/MS analysis; details: recombinant enzyme, 40000 µM, TDE = time-dependent effect
T2 sequence (P05181 whole entry): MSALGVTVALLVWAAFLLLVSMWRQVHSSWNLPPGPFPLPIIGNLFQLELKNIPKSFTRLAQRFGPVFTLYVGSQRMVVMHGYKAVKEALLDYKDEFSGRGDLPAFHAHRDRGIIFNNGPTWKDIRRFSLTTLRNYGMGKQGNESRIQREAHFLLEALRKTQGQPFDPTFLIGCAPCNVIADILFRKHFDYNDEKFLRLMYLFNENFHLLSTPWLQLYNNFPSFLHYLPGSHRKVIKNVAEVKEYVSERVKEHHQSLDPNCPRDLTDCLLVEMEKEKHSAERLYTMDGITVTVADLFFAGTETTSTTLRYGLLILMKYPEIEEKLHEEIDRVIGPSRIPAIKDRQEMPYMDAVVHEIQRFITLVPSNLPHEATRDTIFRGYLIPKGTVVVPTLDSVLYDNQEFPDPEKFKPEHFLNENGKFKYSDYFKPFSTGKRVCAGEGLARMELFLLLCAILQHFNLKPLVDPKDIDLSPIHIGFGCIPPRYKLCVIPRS

CYP2E1 [5] = molecular target: T1, CYP2E1; assay: Inhibition of human CYP2E1 assessed as chlorzoxazone 6-hydroxylase activity at 20 mM after 72 hrs preincubation by HPLC analysis in presence of 1 mM NADPH (RVb = 100%); parameters: scale not given: the % may be the effect or the level left; details: probe chlorzoxazone (6-hydroxylation), read-out: Activity
Cytochrome P450 2E1 [6] = molecular target: T2, Cytochrome P450 2E1; assay: (§1) Inhibition of human CYP2E1 assessed as chlorzoxazone 6-hydroxylase activity by HPLC analysis
CYP2E1 [7] = molecular target: T1, CYP2E1; assay: as §1; details: human, probe chlorzoxazone (6-hydroxylation)
Cytochrome P450 2E1 [8] = molecular target: T2, Cytochrome P450 2E1; assay: Inhibition of human CYP2E1-mediated chlorzoxazone hydroxylase activity at 2.5 to 40 mM after 72 hrs by LC-MS/MS analysis in presence of 1 mM NADPH; details: recombinant enzyme, 40000 µM
CYP2E1 [9] = molecular target: T1, CYP2E1; assay: Inhibition of human CYP2E1 assessed as chlorzoxazone 6-hydroxylase activity at 20 mM after 72 hrs preincubation by HPLC analysis (RVb = 100%); parameters: scale not given: the % may be the effect or the level left; details: probe chlorzoxazone (6-hydroxylation), read-out: Activity
CYP2E1 [10] = molecular target: T1, CYP2E1; assay: Inhibition of human CYP2E1 assessed as chlorzoxazone 6-hydroxylase activity at 40 mM after 72 hrs preincubation by HPLC analysis in presence of 1 mM NADPH (RVb = 100%); parameters: scale not given: the % may be the effect or the level left; details: probe chlorzoxazone (6-hydroxylation), read-out: Activity

T1 sequence (P05181 whole entry): as above

Row | Compound | activity at 72 h, 2500 µM (CYP2E1 [1]) [%] | activity at 72 h, 20000 µM (CYP2E1 [2]) [%] | activity at 72 h, 40000 µM (CYP2E1 [3]) [%] | inhibition (INH) (Cytochrome P450 2E1 [4]) | activity at 72 h, 20000 µM (CYP2E1 [5]) [%] | Ki (Cytochrome P450 2E1 [6]) [mM] | kinact (CYP2E1 [7]) [s⁻¹] | inhibition (INH) (Cytochrome P450 2E1 [8]) | activity at 72 h, 20000 µM (CYP2E1 [9]) [%] | activity at 72 h, 40000 µM (CYP2E1 [10]) [%]
1 | Nn1nnc2ccccc21 | < 1 |  |  |  |  |  |  |  |  | 
2 | CC(=O)Nc1cccc(O)c1 [METACETAMOL] | 97.6 | 91.3 | 65.7 | tde | 64.8 | 9.5 | 0.000133 | Active | 89.3 | 43.7

Reference: ChEMBL document CHEMBL3526128, “Covalent modification and time-dependent inhibition of human CYP2E1 by the meta-isomer of acetaminophen” (Drug Metab Dispos, 2012)
